Measurements from US20120220564A1, “SELECTIVE CALCIUM CHANNEL MODULATORS” (Zalicus Pharmaceuticals Ltd., priority 2009, published 2012).

What was measured:
[1] = test system: Lamina I/II spinal cord neurons; assay: Lamina assay, current-clamp recordings in spinal cord slices; assay type: cell-based, rat; conditions: Lamina I and II neurons
Text: Male Wistar rats (P6 to P9 for voltage-clamp and P15 to P18 for current-clamp recordings) were anaesthetized through intraperitoneal injection of Inactin (Sigma). The spinal cord was then rapidly dissected out and placed in an ice-cold solution protective sucrose solution containing (in mM): 50 sucrose, 92 NaCl, 15 D-Glucose, 26 NaHCO3, 5 KCl, 1.25 NaH2PO4, 0.5 CaCl2, 7 MgSO4, 1 kynurenic acid, and bubbled with 5% CO2/95% O2. The meninges, dura, and dorsal and ventral roots were then removed from the lumbar region of the spinal cord under a dissecting microscope. The “cleaned” lumbar region of the spinal cord was glued to the vibratome stage and immediately immersed in ice cold, bubbled, sucrose solution. For current-clamp recordings, 300 to 350 μm parasagittal slices were cut to preserve the dendritic arbour of lamina I neurons, while 350 to 400 μm transverse slices were prepared for voltage-clamped […] channel recordings. Slices were allowed to recover for 1 hour at 35° C. in Ringer solution containing (in mM): 125 NaCl, 20 D-Glucose, 26 NaHCO3, 3 KCl, 1.25 NaH2PO4, 2 CaCl2, 1 MgCl2, 1 kynurenic acid, 0.1 picrotoxin, bubbled with 5% CO2/95% O2. The slice recovery chamber was then returned to room temperature (20 to 22° C.) and all recordings were performed at this temperature.
Neurons were visualized using IR-DIC optics (Zeiss Axioskop 2 FS plus, Gottingen, Germany), and neurons from lamina I and the outer layer of lamina II were selected based on their location relative to the substantia gelatinosa layer. Neurons were patch-clamped using borosilicate glass patch pipettes with resistances of […] Current-clamp recordings of lamina I/II neurons in the intact slice, the external recording solution was the above Ringer solution, while the internal patch pipette solution contained (in mM): 140 KGluconate, 4 NaCl, 10 HEPES, 1 EGTA, 0.5 MgCl2, 4 MgATP, 0.5 Na2GTP, adjusted to pH 7.2 with 5 M KOH and to 290 mOsm with D-Mannitol (if necessary). […]

[2] = test system: Rat SNL tactile allodynia; assay: L5/L6 spinal nerve ligation (SNL) Chung pain model, tactile allodynia (von Frey); assay type: in vivo; conditions: for % Antiallodynia (Mean ± SD): 100 mg/kg PO, n = 7-8
Text: The Spinal Nerve Ligation is an animal model representing peripheral nerve injury generating a neuropathic pain syndrome. In this model experimental animals develop the clinical symptoms of tactile allodynia and hyperalgesia. L5/L6 Spinal nerve ligation (SNL) injury was induced using the procedure of Kim and Chung (Kim et al., Pain 50:355-363 (1992)) in male Sprague-Dawley rats (Harlan; Indianapolis, Ind.) weighing 200 to 250 grams.
Anaesthesia was induced with 2% isofluorane in O2 at 2 L/min and maintained with 0.5% isofluorane in O2. Rats were then shaved and aseptically prepared for surgeries. A 2 cm paraspinal incision was made at the level of L4-S2. L4/L5 was exposed by removing the transverse process above the nerves with a small rongeur. The L5 spinal nerve is the larger of the two visible nerves below the transverse process and lies closest to the spine. The L6 spinal nerve is located beneath the corner of the slope bone. A home-made glass Chung rod was used to hook L5 or L6 and a pre-made slip knot of 4.0 silk suture was placed on the tip of the rod just above the nerve and pulled underneath to allow for the tight ligation. The L5 and L6 spinal nerves were tightly ligated distal to the dorsal root ganglion. The incision was closed, and the animals were allowed to recover for 5 days.
Sham control rats underwent the same operation and handling as the experimental animals, but without SNL.
Prior to initiating drug delivery, baseline behavioural testing data is obtained. At selected times after infusion of the Test or Control Article behavioural data can then be collected again.
The assessment of tactile allodynia consisted of measuring the withdrawal threshold of the paw ipsilateral to the site of nerve injury in response to probing with a series of calibrated von Frey filaments (innocuous stimuli). Animals were acclimated to the suspended wire-mesh cages for 30 min before testing. Each von Frey filament was applied perpendicularly to the plantar surface of the ligated paw of rats for 5 sec. A positive response was indicated by a sharp withdrawal of the paw. For rats, the first testing filament is 4.31. Measurements were taken before and after administration of test articles. […] The protocol was repeated until three changes in behaviour were determined (“up and down” method) (Chaplan et al., J. Neurosci. Methods 53:55-63 (1994)). The 50% paw withdrawal threshold was determined as (10^[Xf+kδ])/10,000, where Xf=the value of the last von Frey filament employed, k=Dixon value for the positive/negative pattern, and δ=the logarithmic difference between stimuli. The cut-off values for rats were no less than 0.2 g and no higher than 15 g (5.18 filament); for mice no less than 0.03 g and no higher than 2.34 g (4.56 filament). A significant drop of the paw withdrawal threshold compared to the pre-treatment baseline is considered tactile allodynia.

α1H (CaV 3.2) = target: T1, α1H (CaV 3.2) (Homo sapiens, UniProt O95180); assay: T-type calcium channel block, whole cell patch clamp; assay type: cell-based; conditions: HEK cells, mainly non-inactivated protocol; values above 10,000 nM represented as 10000
T1 construct: expressed in transfected cells; host or cells: HEK 293
T1 sequence (O95180 whole entry): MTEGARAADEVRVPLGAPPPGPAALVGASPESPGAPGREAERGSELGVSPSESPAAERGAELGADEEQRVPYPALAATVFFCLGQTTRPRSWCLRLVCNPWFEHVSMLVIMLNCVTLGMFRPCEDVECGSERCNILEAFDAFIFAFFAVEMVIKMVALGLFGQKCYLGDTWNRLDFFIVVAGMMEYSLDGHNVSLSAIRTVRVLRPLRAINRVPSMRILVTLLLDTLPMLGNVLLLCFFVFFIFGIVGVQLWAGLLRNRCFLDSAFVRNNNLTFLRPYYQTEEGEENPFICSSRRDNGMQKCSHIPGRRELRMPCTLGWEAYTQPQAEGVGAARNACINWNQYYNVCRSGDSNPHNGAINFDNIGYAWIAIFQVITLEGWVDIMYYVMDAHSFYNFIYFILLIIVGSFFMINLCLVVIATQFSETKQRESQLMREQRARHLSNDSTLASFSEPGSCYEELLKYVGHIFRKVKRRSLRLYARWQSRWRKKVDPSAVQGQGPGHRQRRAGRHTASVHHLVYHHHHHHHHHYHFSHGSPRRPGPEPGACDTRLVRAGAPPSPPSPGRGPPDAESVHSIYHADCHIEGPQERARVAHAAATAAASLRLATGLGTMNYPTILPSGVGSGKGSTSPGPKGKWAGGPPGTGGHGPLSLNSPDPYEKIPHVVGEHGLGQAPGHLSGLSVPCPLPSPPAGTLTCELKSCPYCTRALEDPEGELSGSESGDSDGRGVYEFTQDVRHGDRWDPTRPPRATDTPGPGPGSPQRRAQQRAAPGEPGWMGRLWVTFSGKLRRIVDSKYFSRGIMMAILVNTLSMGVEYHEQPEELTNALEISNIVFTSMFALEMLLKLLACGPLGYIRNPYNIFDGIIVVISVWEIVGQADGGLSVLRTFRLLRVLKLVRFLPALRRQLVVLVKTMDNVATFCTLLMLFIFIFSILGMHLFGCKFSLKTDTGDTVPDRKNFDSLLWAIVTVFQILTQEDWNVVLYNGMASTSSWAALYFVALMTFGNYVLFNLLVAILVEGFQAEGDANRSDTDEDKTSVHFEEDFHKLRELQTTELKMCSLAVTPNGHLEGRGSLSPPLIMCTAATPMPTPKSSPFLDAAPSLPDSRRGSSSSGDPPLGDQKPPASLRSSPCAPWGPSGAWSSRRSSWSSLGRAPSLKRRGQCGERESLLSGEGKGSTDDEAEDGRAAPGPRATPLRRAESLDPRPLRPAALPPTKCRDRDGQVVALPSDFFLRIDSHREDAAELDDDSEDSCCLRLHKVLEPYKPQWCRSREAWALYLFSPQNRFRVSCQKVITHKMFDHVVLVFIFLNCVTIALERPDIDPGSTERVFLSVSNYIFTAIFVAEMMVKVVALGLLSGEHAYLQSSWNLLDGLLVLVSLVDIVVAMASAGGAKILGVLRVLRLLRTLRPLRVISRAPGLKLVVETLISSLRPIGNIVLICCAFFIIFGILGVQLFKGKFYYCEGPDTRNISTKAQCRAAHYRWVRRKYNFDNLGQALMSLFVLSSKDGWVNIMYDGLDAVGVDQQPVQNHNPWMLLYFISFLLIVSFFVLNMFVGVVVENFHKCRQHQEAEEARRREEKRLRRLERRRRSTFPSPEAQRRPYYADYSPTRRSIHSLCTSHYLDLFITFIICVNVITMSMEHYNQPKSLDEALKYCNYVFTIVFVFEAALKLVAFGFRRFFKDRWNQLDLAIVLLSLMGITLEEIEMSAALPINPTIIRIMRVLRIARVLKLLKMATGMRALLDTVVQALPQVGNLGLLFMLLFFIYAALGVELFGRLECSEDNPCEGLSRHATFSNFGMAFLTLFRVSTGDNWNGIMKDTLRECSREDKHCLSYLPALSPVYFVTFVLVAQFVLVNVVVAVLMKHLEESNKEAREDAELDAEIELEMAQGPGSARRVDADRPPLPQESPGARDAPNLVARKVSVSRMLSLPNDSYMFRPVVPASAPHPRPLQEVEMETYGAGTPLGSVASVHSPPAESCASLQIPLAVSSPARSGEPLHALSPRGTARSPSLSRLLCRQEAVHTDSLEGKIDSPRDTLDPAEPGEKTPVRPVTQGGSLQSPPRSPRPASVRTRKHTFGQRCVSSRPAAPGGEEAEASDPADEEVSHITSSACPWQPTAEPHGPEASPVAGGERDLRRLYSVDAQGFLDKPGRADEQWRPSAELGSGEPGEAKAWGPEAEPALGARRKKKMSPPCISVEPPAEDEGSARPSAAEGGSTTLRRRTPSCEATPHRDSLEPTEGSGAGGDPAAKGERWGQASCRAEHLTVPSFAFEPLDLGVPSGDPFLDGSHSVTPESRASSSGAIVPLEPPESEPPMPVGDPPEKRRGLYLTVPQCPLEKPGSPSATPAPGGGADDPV
Description: (§1) T-type calcium channel blocking activity was assayed in human embryonic kidney cells, HEK 293 (Invitrogen), stably transfected with the T-type calcium channel subunits. Briefly, cells were cultured in Dulbecco's modified eagle medium (DMEM) supplemented with 10% fetal bovine serum, 200 U/ml penicillin, and 0.2 mg/mL streptomycin at 37° C. with 5% CO2. At 85% confluency, cells were split with 0.25% trypsin/1 mM EDTA and plated at 10% confluency on glass coverslips. At 12 hours, the medium was replaced, and the cells stably transfected using a standard calcium phosphate protocol and the appropriate calcium channel cDNA's. Fresh DMEM was supplied, and the cells transferred to 28° C./5% CO2. Cells were incubated for 1 to 2 days prior to whole cell recording.
(§2) Standard patch-clamp techniques were employed to identify blockers of T-type currents. Briefly, previously described HEK cell lines stably expressing human α1G, α1H and α1I T-type channels were used for all the recordings (passage #: 4-20, 37° C., 5% CO2). Whole cell patch clamp experiments were performed using an Axopatch 200B amplifier (Axon Instruments, Burlingame, Calif.) linked to a personal computer equipped with pCLAMP software. Data were analyzed using Clampfit (Axon Instruments) and SigmaPlot 4.0 (Jandel Scientific). To obtain T-type currents, plastic dishes containing semi-confluent cells were positioned on the stage of a ZEISS AXIOVERT S100 microscope after replacing the culture medium with external solution (Table 2). Whole-cell patches were obtained using pipettes (borosilicate glass with filament, O.D.: 1.5 mm, I.D.: 0.86 mm, 10 cm length), fabricated on a SUTTER P-97 puller with resistance values of ˜5 MΩ (Table 3).
(§3) T-type currents were reliably obtained by using two voltage protocols:
(§4) In the non-inactivating protocol, the holding potential is set at −110 mV and with a pre-pulse at −100 mV for 1 second prior to the test pulse at −40 mV for 50 ms. In the inactivation protocol, the pre-pulse is at approximately −85 mV for 1 second, which inactivates about 15% of the T-type channels (Scheme 1).
(§5) Test compounds were dissolved in external solution, 0.1-0.01% DMSO. After ˜10 minutes rest, they were applied by gravity close to the cell using a WPI microfil tubing. The “non-inactivated” pre-pulse was used to examine the resting block of a compound. The “inactivated” protocol was employed to study voltage-dependent block. However, the initial data shown below were mainly obtained using the non-inactivated protocol only. IC50 values are shown for various compounds of the invention in Table 4. […] In Table 4, empty cells indicate that inhibition by the compound was not detected.

6 Hz psychomotor seizure = 6 Hz psychomotor seizure model of partial epilepsy; assay type: in vivo, mice; parameters: concentration or dose not given beside the values
Text: Compounds can also be evaluated for the protection against seizures induced by a 6 Hz, 0.2 ms rectangular pulse width of 3 s duration, at a stimulus intensity of 32 mA (CC97) applied to the cornea of male CF1 mice (20-30 g) according to procedures described by Barton et al, “Pharmacological Characterization of the 6 Hz Psychomotor Seizure Model of Partial Epilepsy,” Epilepsy Res. 47(3):217-27 (2001). Seizures are characterised by the expression of one or more of the following behaviours: stun, forelimb clonus, twitching of the vibrissae and Straub-tail immediately following electrical stimulation.

α1G (CaV 3.1) = target: T2, α1G (CaV 3.1) (Homo sapiens, UniProt O43497); assay: T-type calcium channel block, whole cell patch clamp; assay type: cell-based; conditions: HEK cells, mainly non-inactivated protocol; values above 10,000 nM represented as 10000
T2 construct: expressed in transfected cells; host or cells: HEK 293
T2 sequence (O43497 whole entry): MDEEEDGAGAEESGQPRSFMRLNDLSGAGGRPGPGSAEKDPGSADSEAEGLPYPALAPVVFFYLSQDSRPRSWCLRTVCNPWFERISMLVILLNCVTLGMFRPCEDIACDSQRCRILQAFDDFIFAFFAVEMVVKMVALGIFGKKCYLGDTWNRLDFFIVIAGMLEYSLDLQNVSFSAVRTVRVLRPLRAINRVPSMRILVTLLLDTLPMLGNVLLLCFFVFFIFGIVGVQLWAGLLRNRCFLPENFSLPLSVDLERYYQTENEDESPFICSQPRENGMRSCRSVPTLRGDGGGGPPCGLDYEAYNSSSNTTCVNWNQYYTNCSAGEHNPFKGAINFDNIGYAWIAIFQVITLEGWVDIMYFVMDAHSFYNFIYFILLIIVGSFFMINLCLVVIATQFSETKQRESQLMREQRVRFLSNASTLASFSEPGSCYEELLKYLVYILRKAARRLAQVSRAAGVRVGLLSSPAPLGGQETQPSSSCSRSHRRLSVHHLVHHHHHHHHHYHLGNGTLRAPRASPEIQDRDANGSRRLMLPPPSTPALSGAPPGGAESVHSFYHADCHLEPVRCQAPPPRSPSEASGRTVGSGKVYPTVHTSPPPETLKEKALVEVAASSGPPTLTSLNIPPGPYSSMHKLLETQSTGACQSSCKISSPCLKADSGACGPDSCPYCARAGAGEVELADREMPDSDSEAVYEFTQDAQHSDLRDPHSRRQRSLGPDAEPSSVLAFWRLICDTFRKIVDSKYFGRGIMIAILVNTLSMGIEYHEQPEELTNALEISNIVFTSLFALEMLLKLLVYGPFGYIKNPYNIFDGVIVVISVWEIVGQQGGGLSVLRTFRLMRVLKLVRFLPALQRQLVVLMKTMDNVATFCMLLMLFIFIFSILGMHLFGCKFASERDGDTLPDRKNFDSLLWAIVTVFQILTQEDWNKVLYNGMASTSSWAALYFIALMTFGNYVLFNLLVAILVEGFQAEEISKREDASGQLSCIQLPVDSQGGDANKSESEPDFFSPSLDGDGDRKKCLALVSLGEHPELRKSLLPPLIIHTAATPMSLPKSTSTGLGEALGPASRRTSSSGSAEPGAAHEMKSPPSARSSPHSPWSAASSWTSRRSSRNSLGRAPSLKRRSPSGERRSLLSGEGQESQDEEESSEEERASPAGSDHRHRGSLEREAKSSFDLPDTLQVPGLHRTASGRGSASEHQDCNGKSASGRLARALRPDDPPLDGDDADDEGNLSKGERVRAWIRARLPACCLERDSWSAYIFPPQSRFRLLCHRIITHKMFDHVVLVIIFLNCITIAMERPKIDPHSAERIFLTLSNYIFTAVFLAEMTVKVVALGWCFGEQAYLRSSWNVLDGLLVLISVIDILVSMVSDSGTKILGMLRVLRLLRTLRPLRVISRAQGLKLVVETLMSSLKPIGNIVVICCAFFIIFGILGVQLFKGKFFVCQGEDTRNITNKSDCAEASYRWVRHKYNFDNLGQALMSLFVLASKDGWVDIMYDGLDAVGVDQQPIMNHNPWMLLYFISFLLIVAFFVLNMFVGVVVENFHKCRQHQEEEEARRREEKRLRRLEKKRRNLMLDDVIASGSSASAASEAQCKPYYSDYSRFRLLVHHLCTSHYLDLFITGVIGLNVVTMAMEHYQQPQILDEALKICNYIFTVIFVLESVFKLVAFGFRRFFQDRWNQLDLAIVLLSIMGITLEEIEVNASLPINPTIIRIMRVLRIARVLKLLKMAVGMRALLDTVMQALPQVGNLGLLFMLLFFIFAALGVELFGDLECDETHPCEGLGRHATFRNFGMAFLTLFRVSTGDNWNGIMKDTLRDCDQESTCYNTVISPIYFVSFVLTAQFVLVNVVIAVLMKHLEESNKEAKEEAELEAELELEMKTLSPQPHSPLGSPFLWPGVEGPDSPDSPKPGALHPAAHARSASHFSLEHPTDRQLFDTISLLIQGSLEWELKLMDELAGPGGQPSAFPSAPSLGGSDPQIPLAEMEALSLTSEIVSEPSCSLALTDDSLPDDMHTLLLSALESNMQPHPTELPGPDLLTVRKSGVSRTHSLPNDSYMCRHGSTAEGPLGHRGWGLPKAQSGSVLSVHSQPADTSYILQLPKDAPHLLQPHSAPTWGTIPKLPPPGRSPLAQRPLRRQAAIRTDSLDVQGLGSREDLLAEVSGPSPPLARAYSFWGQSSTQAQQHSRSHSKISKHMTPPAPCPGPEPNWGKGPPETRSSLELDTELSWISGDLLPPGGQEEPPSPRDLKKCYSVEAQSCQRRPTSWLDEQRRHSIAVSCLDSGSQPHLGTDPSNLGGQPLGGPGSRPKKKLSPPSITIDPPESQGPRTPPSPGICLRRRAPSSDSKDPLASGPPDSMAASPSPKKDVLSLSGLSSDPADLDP
Description: as §1, §2, §3, §4, §5

[3] = test system: minimal muscular or neurological impairment (rotarod); assay: Mouse rotarod assay; assay type: in vivo, mice
Description: To assess a compound's undesirable side effects (toxicity), animals can be monitored for overt signs of impaired neurological or muscular function. In mice, the rotarod procedure (Dunham and Miya, J. Am. Pharmacol. Assoc. 46:208-209 (1957)) is used to disclose minimal muscular or neurological impairment (MMI). When a mouse is placed on a rod that rotates at a speed of 6 rpm, the animal can maintain its equilibrium for long periods of time. The animal is considered toxic if it falls off this rotating rod three times during a 1-min period.

Row | Compound | Rat SNL tactile allodynia (% antiallodynia) ([2]; 1 hr) | Rat SNL tactile allodynia (% antiallodynia) ([2]; 2 hr) | Rat SNL tactile allodynia (% antiallodynia) ([2]; 4 hr) | IC50 (α1H (CaV 3.2)) | Epilepsy 6 Hz (% Protected) (6 Hz psychomotor seizure; 0.25 hr) | Epilepsy 6 Hz (% Protected) (6 Hz psychomotor seizure; 0.5 hr) | Epilepsy 6 Hz (% Protected) (6 Hz psychomotor seizure; 1 hr) | Epilepsy 6 Hz (% Protected) (6 Hz psychomotor seizure; 2 hr) | IC50 (α1G (CaV 3.1)) | Rotarod Assay (% impaired) ([3]; 0.25 hr) | Rotarod Assay (% impaired) ([3]; 0.5 hr) | Rotarod Assay (% impaired) ([3]; 1 hr) | Rotarod Assay (% impaired) ([3]; 2 hr) | Rotarod Assay (% impaired) ([3]; 4 hr) | other results
1 | O=C(CC1CCN(C(=O)[C@H]2CCCCN2)CC1)Nc1cc(C(F)(F)F)cc(C(F)(F)F)c1 [Compound 74] |  |  |  |  |  |  |  |  |  |  |  |  |  |  | % Spike Change Mean [1]: −53%
2 | NCC1(CC(=O)O)CCCCC1 [Gabapentin, gabapentin, reference compound] |  |  |  |  |  |  |  |  |  |  |  |  |  |  | % Antiallodynia (Mean ± SD) ([2]; 1 h): 73 ± 35 %; % Antiallodynia (Mean ± SD) ([2]; 2 h): 90 ± 18 %; % Antiallodynia (Mean ± SD) ([2]; 4 h): 15 ± 8%; anti-allodynia performance compared with first study ([2]; second repetition of the study): performed similarly
3 | NC1(CC(=O)N2CCC(NC(=O)Nc3cc(C(F)(F)F)cc(C(F)(F)F)c3)CC2)CCCCC1 [Compound 75] | 5% | 3% | 3% |  |  |  |  |  |  |  |  |  |  |  | 
4 | NC1(CC(=O)N2CCC(O)(CC(=O)Nc3cc(C(F)(F)F)cc(C(F)(F)F)c3)CC2)CCCCC1 [Compound 54, 2-(1-(2-(1-aminocyclohexyl)acetyl)-4-hydroxypiperidin-4-yl)-N-(3,5-bis(trifluoromethyl)phenyl)acetamide] | 41% | 39% | 45% | 80 nM | 25% | 75% | 75% | 75% |  |  |  |  |  |  | Epilepsy 6 Hz (% Protected) (6 Hz psychomotor seizure; 4 hr): 100%
5 | O=C(CC1CCN(C(=O)C2CNCCO2)CC1)Nc1cc(C(F)(F)F)cc(C(F)(F)F)c1 (centres unmarked) [Compound 4, N-(3,5-bis(trifluoromethyl)phenyl)-2-(1-(morpholine-2-carbonyl)piperidin-4-yl)acetamide] |  |  |  | 2180 nM |  |  |  |  | > 10000 nM | 25% | 0% | 75% | 75% | 75% | 
6 | NC1(CC(=O)N2CCC(CC(=O)Nc3cc(C(F)(F)F)cc(C(F)(F)F)c3)CC2)CCCCC1 [Compound 8, 2-(1-(2-(1-aminocyclohexyl)acetyl)piperidin-4-yl)-N-(3,5-bis(trifluoromethyl)phenyl)acetamide] |  |  |  | 110 nM | 75% | 75% | 67% | 100% | > 10000 nM | 0% | 50% | 75% | 100% | 100% | 
